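Results reflect a 48-hour exposure of cells in 96-well plates to compound at five concentrations. Here, GI50 denotes the concentration required for 50% inhibition of growth. At the TGI there is no net growth.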

Assay in all cases: inhibition of tumour cell growth, NCI panel, 48 h
Test [1] relates to SR leukemia.
The test system of test [2] is UO-31 renal.
Test [3] deals with SK-OV-3 ovarian.
For test [4], the system named is OVCAR-3 ovarian.
Test [5] relates to MDA-MB-231 breast.
Test [6] deals with SK-MEL-5 melanoma.
Test [7] relates to TK-10 renal.
The subject of test [8] is MDA-MB-435.
Test [9] has as its system HCT-15 colon.
The subject of test [10] is K-562 leukemia.

With `c1ccc(Cn2cc3c(c2)-c2oncc2CC3)cc1`, the GI50 is 0.31 µM in test [1]; 4.23 µM in test [2]; 0.767 µM in [3]; 0.457 µM in test [4]; 1.36 µM in [5]; 0.348 µM in [6]. For the same compound, the GI50 is 2.98 µM in test [7], 0.311 µM in test [8], 0.863 µM in test [9] and 0.387 µM in test [10]. For the same compound, the TGI is 4.34 µM in [1]; 97.1 µM in [2]; 26.5 µM in test [3]; 2.21 µM in test [4]; 51.9 µM in test [5]; 11.8 µM in test [6]. Moreover, the TGI in [7] was more than 71.5 µM; in test [8], more than 100 µM; in [9], more than 100 µM; in [10], more than 100 µM.

Take `Cc1cc[c-]cc1.Fc1c[c-]c(-c2ccccn2)c(F)c1.N#CCC[PH+](CCC#N)c1ccccc1.[Pt+2]`: the GI50 in test [1] is 2.22 µM; in test [2] it was 1.45 µM; in test [3] it was 8.37 µM; in [4] it was 3.26 µM; in [5] it was 2.74 µM; in test [6] it was 2.24 µM. The GI50 in test [7] is 4.45 µM; in test [8], 2.47 µM; in [9], 2.89 µM; in test [10], 3.48 µM. Moreover, the TGI in test [1] is 10 µM; in test [2], 2.82 µM; in test [3], more than 100 µM; in [4], 13.1 µM; in [5] it was 7.57 µM; in [6] it was 5.36 µM. Also, the TGI in test [7] was 36 µM; in test [8], 6.75 µM; in test [9], 11.6 µM; in [10], more than 100 µM.

`COc1cc(C(=O)/C=C/c2c(-c3ccc(F)cc3)nc3sccn23)cc(OC)c1OC`: the GI50 in [1] is 1.41 µM; in test [2], 2.87 µM; in [3], 2.68 µM; in [4], 2.27 µM; in test [5], 2.34 µM; in test [6], 1.28 µM. The GI50 in test [7] is 3.6 µM; in test [8], 2.13 µM; in [9], 2.87 µM; in test [10], 1.85 µM. The TGI in test [1] was 5.09 µM; in test [2], more than 27 µM; in [3], 11.9 µM; in test [4] it was 6.81 µM; in test [5], more than 29.8 µM; in [6], 2.81 µM. In addition, the TGI in test [7] was more than 24.6 µM; in [8], 7.92 µM; in test [9], 13.1 µM; in test [10] it was 6.64 µM.

`Cn1cc(-c2csc(-c3cn(CCN4CCOCC4)c4ccc(F)cc34)n2)c2cccnc21`: the GI50 in [1] is 2.29 µM; in test [2], 2.2 µM; in [3] it was 5.41 µM; in test [4], 2.71 µM; in test [5], 2.51 µM; in test [6], 1.85 µM. Besides, the GI50 in test [7] was 3.28 µM; in test [8] it was 2.77 µM; in test [9], 2.29 µM; in test [10] it was 2.94 µM. In addition, the TGI stood at 6.9 µM in test [1]; 7.88 µM in test [2]; 51.6 µM in test [3]; 9.27 µM in test [4]; 8.48 µM in [5]; 3.56 µM in [6]. In addition, the TGI worked out at 18.8 µM in test [7], 10.5 µM in [8], 8.09 µM in test [9] and 10.3 µM in test [10].

In the case of `OC(COc1ccc(Cl)cc1Cl)CN1CCCC1` (stereo not given), the TGI in test [1], in [2], in test [3], in test [4], in test [5] and in [6] was more than 100 µM throughout. For the same compound, the TGI in test [7], in test [8], in test [9] and in test [10] was more than 100 µM throughout.

As to `O=S(=O)(NC(=S)Nc1ccccc1)c1ccc(N2N=C3c4ccccc4CC3C2c2ccc(Cl)cc2)cc1` (stereo not given), the GI50 in test [1] is 14.7 µM; in test [2], 19 µM; in test [3] it was 40.7 µM; in test [4], 46.3 µM; in test [5], 87.1 µM; in test [6], 20.4 µM. In addition, the GI50 is 30.2 µM in test [7], 44.8 µM in test [8], 22.4 µM in test [9] and 16.4 µM in [10]. Besides, the TGI in [1] was 36.6 µM; in test [2], 38.1 µM; in test [3], more than 100 µM; in test [4], more than 100 µM; in [5] it was more than 100 µM; in [6] it was 40.9 µM. Further, the TGI in test [7] is 99.4 µM; in [8], more than 100 µM; in test [9], 54.8 µM; in [10], 42.1 µM.

For `Cc1sc2nc(-c3ccccn3)c(/C=N/N=C(N)N)n2c1C`, the GI50 in test [1] was more than 100 µM; in [2] it was 8.94 µM; in test [3] it was 9.14 µM; in test [4], 8.03 µM; in test [5] it was 3.3 µM; in [6], 3.58 µM. For the same compound, the GI50 was 5.89 µM in [7], 4.53 µM in test [8], 4.98 µM in [9] and more than 51.5 µM in test [10]. Further, the TGI in test [1] is more than 100 µM; in test [2], 20.9 µM; in test [3], 20.1 µM; in test [4] it was 15.6 µM; in test [5], 6.94 µM; in test [6], 8.13 µM. Besides, the TGI is 11.2 µM in [7], 10.1 µM in test [8], 13.5 µM in [9] and more than 100 µM in test [10].

Consider `O=C1CC(c2ccccc2)Cc2nc3ccc(Cl)cc3cc21` (stereo not given), for which the GI50 in [1] is 0.0553 µM; in [2] it was 0.263 µM; in test [3], 0.753 µM; in test [4] it was 0.313 µM; in [5], 0.538 µM; in test [6], 0.309 µM. Besides, the GI50 in test [7] is 22.3 µM; in test [8], 0.0235 µM; in [9], 0.511 µM; in [10], 0.0859 µM. For the same compound, the TGI is 35.2 µM in test [1]; more than 93 µM in test [2]; more than 100 µM in [3]; 1.16 µM in test [4]; more than 100 µM in test [5]; 2.37 µM in [6]. Moreover, the TGI in [7] is more than 100 µM; in test [8], 0.0649 µM; in test [9] it was 66.6 µM; in test [10], more than 100 µM.

With `CC(C)(C)c1ccc(C(=O)N/N=C/c2ccc(O)cc2O)cc1`, the GI50 in test [1] was 0.317 µM; in [2] it was 0.24 µM; in test [3] it was 0.589 µM; in test [4], 0.28 µM; in [5] it was 0.5 µM; in [6], 0.913 µM. For the same compound, the GI50 is 0.73 µM in test [7], 0.806 µM in [8], 0.325 µM in test [9] and 0.476 µM in test [10]. The TGI in test [1] is more than 100 µM; in [2], 2.28 µM; in test [3] it was 14.7 µM; in [4] it was 2.06 µM; in test [5], 5.83 µM; in [6] it was 3.4 µM. Further, the TGI in test [7] was more than 53.5 µM; in test [8] it was 21.6 µM; in [9], 2.12 µM; in [10], 20.1 µM.

`CN(C)CCCNC(=O)c1cc2c3ccccc3[nH]c2c2ncccc12`: the GI50 in test [1] is 14.5 µM; in test [2] it was 10.9 µM; in [3] it was 20 µM; in [4] it was 16.3 µM; in [5], 14.4 µM; in [6] it was 13.5 µM. Moreover, the GI50 in [7] is 15.5 µM; in [8] it was 11.1 µM; in test [9], 11.6 µM; in [10], 27.6 µM. The TGI is 67.1 µM in test [1]; more than 100 µM in test [2]; more than 100 µM in test [3]; 54.9 µM in [4]; 74.9 µM in [5]; 26.6 µM in test [6]. In addition, the TGI is more than 100 µM in test [7], 23.4 µM in [8], 58.5 µM in test [9] and more than 100 µM in test [10].

Turning to `c1ccc(-c2n(Cc3ccc4ccccc4n3)c3ccccc3[n+]2Cc2ccc3ccccc3n2)cc1`, the GI50 in test [1] is 0.357 µM; in [2], 1.45 µM; in test [3] it was 0.282 µM; in test [4], 0.311 µM; in [5], 0.269 µM; in [6], 0.219 µM. Moreover, the GI50 in test [7] was 0.426 µM; in test [8], 0.337 µM; in test [9], 2.23 µM; in test [10] it was 0.141 µM. The TGI in test [1] came out at 2.42 µM; in test [2] it was 2.89 µM; in [3], 1.18 µM; in [4], 1.38 µM; in test [5], 1.3 µM; in test [6], 0.502 µM. Further, the TGI came out at 1.91 µM in test [7], 1.22 µM in test [8], 5.99 µM in test [9] and 1.34 µM in [10].

These data come from PubChem BioAssay (NCI).
